# Patent US20090069565A1, “NEW INDOLE DERIVATIVES AS FACTOR XA INHIBITORS” (priority 2001, published 2009)
# Read-outs that look alike come from different tables or passages of the source.
# Target: human factor Xa (Homo sapiens, UniProt P00742)
# Experiment: Factor Xa assay (chromogenic, substrate S-2765);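 note: purified enzyme preincubated with inhibitor for 10 min before substrate addition, final reaction volume 100 µl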
# Format: biochemical
# [1] = inhibition constant for factor Xa, purified enzyme 0.5 nM, substrate S-2765 140 μM, 25° C., pH 7.8, Ki=IC50/{1+(substrate concentration/Km)}, read-out: Ki(FXa)
# Chain of human factor Xa (P00742 235-488 limits assumed): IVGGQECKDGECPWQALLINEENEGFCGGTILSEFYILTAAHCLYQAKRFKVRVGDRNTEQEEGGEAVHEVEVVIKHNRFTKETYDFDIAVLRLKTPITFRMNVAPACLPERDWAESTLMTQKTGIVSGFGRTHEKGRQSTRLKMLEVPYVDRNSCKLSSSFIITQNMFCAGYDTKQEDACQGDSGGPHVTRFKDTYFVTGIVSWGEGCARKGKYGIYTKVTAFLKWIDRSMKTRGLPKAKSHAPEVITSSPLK
# Chain of human factor Xa (P00742 41-179 partner limits assumed): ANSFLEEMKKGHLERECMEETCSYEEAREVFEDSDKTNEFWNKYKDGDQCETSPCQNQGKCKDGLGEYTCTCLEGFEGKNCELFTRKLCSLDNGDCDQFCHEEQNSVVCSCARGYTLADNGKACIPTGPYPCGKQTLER
Compound,Ki [1] [nM],Ki (read-out: Ki(FXa)) [nM],further results
"NC(=O)N1CCC(NC(=O)c2cc3ccccc3n2Cc2cc(-c3ccc(Cl)s3)on2)CC1 [Example 190, 1-[5-(5-Chloro-thiophen-2-yl)-isoxazol-3-ylmethyl]-1H-indole-2-carboxylic acid (1-carbamoyl-piperidin-4-yl)-amide]",1080,–,–
"CS(=O)(=O)N1CCC(NC(=O)c2cc3ccccc3n2Cc2cc(-c3ccc(Cl)s3)on2)CC1 [Example 191, 1-[5-(5-Chloro-thiophen-2-yl)-isoxazol-3-ylmethyl]-1H-indole-2-carboxylic acid (1-methanesulfonyl-piperidin-4-yl)-amide]",–,136,–
"CC(=O)N1CCC(NC(=O)c2cc3ccccc3n2Cc2cc(-c3ccc(Cl)s3)on2)CC1 [Example 192, 1-[5-(5-Chloro-thiophen-2-yl)-isoxazol-3-ylmethyl]-1H-indole-2-carboxylic acid (1-acetyl-piperidin-4-yl)-amide]",763,–,–
"O=C(NC1CCN(c2ccnc(Cl)n2)CC1)c1cc2ccccc2n1Cc1cc(-c2ccc(Cl)s2)on1 [Example 193, 1-[5-(5-Chloro-thiophen-2-yl)-isoxazol-3-ylmethyl]-1H-indole-2-carboxylic acid [1-(2-chloro-pyrimidin-4-yl)-piperidin-4-yl]-amide]",–,199,–
"O=C(NC1CCN(c2ccncn2)CC1)c1cc2ccccc2n1Cc1cc(-c2ccc(Cl)s2)on1 [Example 194, 1-[5-(5-Chloro-thiophen-2-yl)-isoxazol-3-ylmethyl]-1H-indole-2-carboxylic acid (1-pyrimidin-4-yl-piperidin-4-yl)-amide]",95,–,–
"CC(C)CN1CCC(NC(=O)c2cc3ccccc3n2Cc2cc(-c3ccc(Cl)s3)on2)CC1 [Example 199, 1-[5-(5-Chloro-thiophen-2-yl)-isoxazol-3-ylmethyl]-1H-indole-2-carboxylic acid (1-isobutyl-piperidin-4-yl)-amide]",142,–,–
CCCN1CCC(NC(=O)c2cc3ccccc3n2Cc2cc(-c3ccc(Cl)s3)on2)CC1 [Example 200],64,–,–
"COC(=O)N1CCC(NC(=O)c2cc3ccccc3n2Cc2cc(-c3ccc(Cl)s3)on2)CC1 [Example 201, 4-({1-[5-(5-Chloro-thiophen-2-yl)-isoxazol-3-ylmethyl]-1H-indole-2-carbonyl}-amino)-piperidine-1-carboxylic acid methyl ester]",–,1780,–
"CC(C)N1CCN(NC(=O)c2cc3ccccc3n2Cc2cc(-c3ccc(Cl)s3)on2)CC1 [Example 202, 1-[5-(5-Chloro-thiophen-2-yl)-isoxazol-3-ylmethyl]-1H-indole-2-carboxylic acid (4-isopropyl-piperazin-1-yl)-amide]",–,20,–
"CCN1CCN(NC(=O)c2cc3ccccc3n2Cc2cc(-c3ccc(Cl)s3)on2)CC1 [Example 203, 1-[5-(5-Chloro-thiophen-2-yl)-isoxazol-3-ylmethyl]-1H-indole-2-carboxylic acid (4-ethyl-piperazin-1-yl)-amide]",–,28,–
"O=C(c1cc2ccccc2n1Cc1cc(-c2ccc(Cl)s2)on1)N(c1ccncc1)C1CCN(c2ccncc2)CC1 [Example 204, 1-[5-(5-Chloro-thiophen-2-yl)-isoxazol-3-ylmethyl]-1H-indole-2-carboxylic acid pyridin-4-yl-(3,4,5,6-tetrahydro-2H-[1,4′]bipyridinyl-4-yl)-amide]",–,–,Ki: 74 nM
"O=C(c1cc2cc([N+](=O)[O-])ccc2n1Cc1cc(-c2ccc(Cl)s2)on1)N(c1ccncc1)C1CCN(c2ccncc2)CC1 [Example 205, 1-[5-(5-Chloro-thiophen-2-yl)-isoxazol-3-ylmethyl]-5-nitro-1H-indole-2-carboxylic acid pyridin-4-yl-(3,4,5,6-tetrahydro-2H-[1,4′]bipyridinyl-4-yl)-amide]",–,–,Ki: 34 nM
"N#Cc1c(C(=O)NC2CCN(c3ccncc3)CC2)n(Cc2cc(-c3ccc(Cl)s3)on2)c2ccccc12 [Example 206, 1-[5-(5-Chloro-thiophen-2-yl)-isoxazol-3-ylmethyl]-3-cyano-1H-indole-2-carboxylic acid (3,4,5,6-tetrahydro-2H-[1,4′]bipyridinyl-4-yl)-amide]",–,12,–
"COc1ccc(C#N)c2c1c(C#N)c(C(=O)NC1CCN(C(C)C)CC1)n2Cc1cc(-c2ccc(Cl)s2)on1 [Example 208, 1-[5-(5-Chloro-thiophen-2-yl)-isoxazol-3-ylmethyl]-3,7-dicyano-4-methoxy-1H-indole-2-carboxylic acid (1-isopropyl-piperidin-4-yl)-amide]",–,1,–
"CC(C)N1CCC(NC(=O)c2cc3ccccc3n2Cc2cc3ccc(Cl)cc3c(Cl)n2)CC1 [Example 210, 1-(1,7-Dichloro-isoquinolin-3-ylmethyl)-1H-indole-2-carboxylic acid (1-isopropyl-piperidin-4-yl)-amide]",–,79,–
"CC(C)N1CCC(NC(=O)c2cc3ccccc3n2Cc2cc(-c3ccc(Cl)cc3)no2)CC1 [Example 211, 1-[3-(4-Chloro-phenyl)-isoxazol-5-ylmethyl]-1H-indole-2-carboxylic acid (1-isopropyl-piperidin-4-yl)-amide]",400,–,–

Compound,Ki [1] [nM],Ki (read-out: Ki(FXa)) [nM],further results
"CC(C)N1CCC(NC(=O)c2cc3ccccc3n2Cc2cc(-c3ccc(Cl)cc3)on2)CC1 [Example 212, 1-[5-(4-Chloro-phenyl)-isoxazol-3-ylmethyl]-1H-indole-2-carboxylic acid (1-isopropyl-piperidin-4-yl)-amide]",810,–,–
"CC(C)N1CCC(NC(=O)c2cc3ccccc3n2Cc2nc(-c3ccc(Cl)cc3)no2)CC1 [Example 213, 1-[3-(4-Chloro-phenyl)-[1,2,4]oxadiazol-5-ylmethyl]-1H-indole-2-carboxylic acid (1-isopropyl-piperidin-4-yl)-amide]",2230,–,–
"CC(C)N1CCC(NC(=O)c2cc3cc(S(C)(=O)=O)ccc3n2CC(=O)Nc2ccc(Cl)cn2)CC1 [Example 214, 1-[(5-Chloro-pyridin-2-ylcarbamoyl)-methyl]-5-methanesulfonyl-1H-indole-2-carboxylic acid (1-isopropyl-piperidin-4-yl)-amide]",–,52,–
"CC(C)N1CCC(NC(=O)c2cc3cc(S(C)(=O)=O)ccc3n2CC(=O)Nc2ccc(Cl)cc2)CC1 [Example 215, 1-[(4-Chloro-phenylcarbamoyl)-methyl]-5-methanesulfonyl-1H-indole-2-carboxylic acid (1-isopropyl-piperidin-4-yl)-amide]",–,23,–
"CC(C)N1CCC(NC(=O)c2cc3cc(Cl)ccc3n2CC(=O)Nc2ccc(Cl)cn2)CC1 [Example 216, 5-Chloro-1-[(5-chloro-pyridin-2-ylcarbamoyl)-methyl]-1H-indole-2-carboxylic acid (1-isopropyl-piperidin-4-yl)-amide]",–,9,–
"CC(C)N1CCC(NC(=O)c2cc3cc(F)ccc3n2CC(=O)Nc2ccc(Cl)cn2)CC1 [Example 217, 1-[(5-Chloro-pyridin-2-ylcarbamoyl)-methyl]-5-fluoro-1H-indole-2-carboxylic acid (1-isopropyl-piperidin-4-yl)-amide]",–,700,–
"CC(C)N1CCC(NC(=O)c2cc3cc(F)cc(F)c3n2CC(=O)Nc2ccc(Cl)cn2)CC1 [Example 218, 1-[(5-Chloro-pyridin-2-ylcarbamoyl)-methyl]-5,7-difluoro-1H-indole-2-carboxylic acid (1-isopropyl-piperidin-4-yl)-amide]",–,1,–
CCN1CC[C@H](NC(=O)c2cc3ccccc3n2Cc2cc(-c3ccc(Cl)s3)on2)C1 [Example 219],–,173,–
"CCN1CC[C@@H](NC(=O)c2cc3ccccc3n2Cc2cc(-c3ccc(Cl)s3)on2)C1 [Example 220, R-1-[5-(5-Chloro-thiophen-2-yl)-isoxazol-3-ylmethyl]-1H-indole-2-carboxylic acid (1-ethyl-pyrrolidin-3-yl)-amide]",–,102,–
"CC(C)N1CC[C@@H](NC(=O)c2cc3ccccc3n2Cc2cc(-c3ccc(Cl)s3)on2)C1 [Example 221, R-1-[5-(5-Chloro-thiophen-2-yl)-isoxazol-3-ylmethyl]-1H-indole-2-carboxylic acid (1-isopropyl-pyrrolidin-3-yl)-amide]",48,–,–
"CC(C)N1CC[C@H](NC(=O)c2cc3ccccc3n2Cc2cc(-c3ccc(Cl)s3)on2)C1 [Example 222, S-1-[5-(5-Chloro-thiophen-2-yl)-isoxazol-3-ylmethyl]-1H-indole-2-carboxylic (1-isopropyl-pyrrolidin-3-yl)-amide]",103,–,–
"CCOC(=O)CN(C(=O)c1cc2c(C(F)(F)F)cccc2n1Cc1cc(-c2ccc(Cl)s2)on1)C1CCN(C(C)C)CC1 [Example 223, [{1-[5-(5-Chloro-thiophen-2-yl)-isoxazol-3-ylmethyl]-4-trifluoromethyl-1H-indole-2-carbonyl}-(1-isopropyl-piperidin-4-yl)-amino]-acetic acid ethyl ester]",–,110,–
"CCOC(=O)CN(C(=O)c1cc2c(C)ccc(C)c2n1Cc1cc(-c2ccc(Cl)s2)on1)C1CCN(C(C)C)CC1 [Example 224, [{1-[5-(5-Chloro-thiophen-2-yl)-isoxazol-3-ylmethyl]-4,7-dimethyl-1H-indole-2-carbonyl}-(1-isopropyl-piperidin-4-yl)-amino]-acetic acid ethyl ester]",–,21,–
"CCOC(=O)CN(C(=O)c1cc2c(OC)ccc(OC)c2n1Cc1cc(-c2ccc(Cl)s2)on1)C1CCN(C(C)C)CC1 [Example 225, [{1-[5-(5-Chloro-thiophen-2-yl)-isoxazol-3-ylmethyl]-4,7-dimethoxy-1H-indole-2-carbonyl}-(1-isopropyl-piperidin-4-yl)-amino]-acetic acid ethyl ester]",–,26,–
"CCOC(=O)CN(C(=O)c1cc2c(Cl)ccc(Cl)c2n1Cc1cc(-c2ccc(Cl)s2)on1)C1CCN(C(C)C)CC1 [Example 226, [{4,7-Dichloro-1-[5-(5-chloro-thiophen-2-yl)-isoxazol-3-ylmethyl]-1H-indole-2-carbonyl}-(1-isopropyl-piperidin-4-yl)-amino]-acetic acid ethyl ester]",–,83,–
"CCOC(=O)CN(C(=O)c1cc2cc(Cl)cc(Cl)c2n1Cc1cc(-c2ccc(Cl)s2)on1)C1CCN(C(C)C)CC1 [Example 227, [{5,7-Dichloro-1-[5-(5-chloro-thiophen-2-yl)-isoxazol-3-ylmethyl]-1H-indole-2-carbonyl}-(1-isopropyl-piperidin-4-yl)-amino]-acetic acid ethyl ester]",–,88,–
